From ChEMBL document CHEMBL5608186, “Design, synthesis and structure-activity relationships of novel non-ketolides: 9-Oxime clarithromycin featured with seven-to thirteen-atom-length diamine linkers at 3-OH” (Eur J Med Chem, 2024)
In brackets after ≈: the same amount, converted by molar mass.

What was measured:
Assay type in all cases: functional
[1] = system: Streptococcus pneumoniae; test: Bactericidal activity against Streptococcus pneumoniae PU 09 harboring mef gene incubated for 16 to 20 hrs by CLSI based broth microdilution method; conditions: time 16-20 hrs
[2] = system: Haemophilus influenzae; test: Antibacterial activity against Haemophilus influenzae ATCC 49247 incubated for 16 to 20 hrs by CLSI based broth microdilution method; conditions: time 16-20 hrs
[3] = system: Streptococcus pneumoniae; test: Antibacterial activity against Streptococcus pneumoniae 07P390 harboring c-erm gene incubated for 16 to 20 hrs by CLSI based broth microdilution method; conditions: time 16-20 hrs
[4] = system: Streptococcus pneumoniae; test: Bactericidal activity against Streptococcus pneumoniae 07P390 harboring c-erm gene incubated for 16 to 20 hrs by CLSI based broth microdilution method; conditions: time 16-20 hrs
[5] = system: Streptococcus pneumoniae; test: Bactericidal activity against Streptococcus pneumoniae ATCC 49619 incubated for 16 to 20 hrs by CLSI based broth microdilution method; conditions: time 16-20 hrs
[6] = system: Streptococcus pneumoniae; test: Selectivity ratio of MBC for Streptococcus pneumoniae 07P390 harboring c-erm gene to MIC for Streptococcus pneumoniae 07P390 harboring c-erm gene
[7] = system: Staphylococcus aureus; test: Antibacterial activity against methicillin-resistant Staphylococcus aureus PU 32 harboring i-ermA gene incubated for 16 to 20 hrs by CLSI based broth microdilution method; conditions: time 16-20 hrs
[8] = system: Streptococcus pyogenes; test: Antibacterial activity against Streptococcus pyogenes 01-968 harboring i-ermB gene incubated for 16 to 20 hrs by CLSI based broth microdilution method; conditions: time 16-20 hrs
[9] = system: Streptococcus pneumoniae; test: Antibacterial activity against Streptococcus pneumoniae PU 09 harboring mef gene incubated for 16 to 20 hrs by CLSI based broth microdilution method; conditions: time 16-20 hrs
[10] = system: Streptococcus pneumoniae; test: Antibacterial activity against Streptococcus pneumoniae ATCC 49619 incubated for 16 to 20 hrs by CLSI based broth microdilution method; conditions: time 16-20 hrs
[11] = system: Streptococcus pneumoniae; test: Selectivity ratio of MBC for Streptococcus pneumoniae PU 09 harboring mef gene to MIC for Streptococcus pneumoniae PU 09 harboring mef gene
[12] = system: Staphylococcus aureus; test: Bactericidal activity against methicillin-resistant Staphylococcus aureus PU 20 harboring c-ermA gene incubated for 16 to 20 hrs by CLSI based broth microdilution method; conditions: time 16-20 hrs
[13] = system: Staphylococcus aureus; test: Selectivity ratio of MBC for methicillin-resistant Staphylococcus aureus PU 32 harboring i-ermA gene to MIC for methicillin-resistant Staphylococcus aureus PU 32 harboring i-ermA gene
[14] = system: Staphylococcus aureus; test: Bactericidal activity against methicillin-resistant Staphylococcus aureus PU 32 harboring i-ermA gene incubated for 16 to 20 hrs by CLSI based broth microdilution method; conditions: time 16-20 hrs
[15] = system: Streptococcus pneumoniae; test: Selectivity ratio of MBC for Streptococcus pneumoniae ATCC 49619 to MIC for Streptococcus pneumoniae ATCC 49619
[16] = system: Haemophilus influenzae; test: Bactericidal activity against Haemophilus influenzae ATCC 49247 incubated for 16 to 20 hrs by CLSI based broth microdilution method; conditions: time 16-20 hrs
[17] = system: Streptococcus pyogenes; test: Bactericidal activity against Streptococcus pyogenes 01-968 harboring i-ermB gene incubated for 16 to 20 hrs by CLSI based broth microdilution method; conditions: time 16-20 hrs
[18] = system: Streptococcus pyogenes; test: Selectivity ratio of MBC for Streptococcus pyogenes 01-968 harboring i-ermB gene to MIC for Streptococcus pyogenes 01-968 harboring i-ermB gene
[19] = system: Haemophilus influenzae; test: Selectivity ratio of MBC for Haemophilus influenzae ATCC 49247 to MIC for Haemophilus influenzae ATCC 49247
[20] = system: Staphylococcus aureus; test: Antibacterial activity against methicillin-resistant Staphylococcus aureus PU 20 harboring c-ermA gene incubated for 16 to 20 hrs by CLSI based broth microdilution method; conditions: time 16-20 hrs

Row | SMILES | MBC [1] | MIC [2] | MIC [3] | MBC [4] | MBC [5] | Selectivity ratio [6] | MIC [7] | MIC [8] | MIC [9] | MIC [10] | Selectivity ratio [11] | MBC [12] | Selectivity ratio [13] | MBC [14] | Selectivity ratio [15] | MBC [16] | MBC [17] | Selectivity ratio [18] | Selectivity ratio [19] | MIC [20]
1 | CC[C@H]1OC(=O)[C@H](C)[C@@H](OC(=O)CCNCCCCCCNc2cc3c(cc2F)c(=O)c(C(=O)O)cn3C2CC2)[C@H](C)[C@@H](O[C@@H]2O[C@H](C)C[C@H](N(C)C)[C@H]2O)[C@](C)(OC)C[C@@H](C)/C(=N\OC)[C@H](C)[C@H]2OC(=O)O[C@@]21C | 1 µg/mL (≈ 0.943 µM) | 256 µg/mL (≈ 241 µM) | 1 µg/mL (≈ 0.943 µM) | 4 µg/mL (≈ 3.77 µM) | 0.062 µg/mL (≈ 0.0585 µM) | 4 | 4 µg/mL (≈ 3.77 µM) | ≤ 0.008 µg/mL | 0.5 µg/mL (≈ 0.472 µM) | 0.062 µg/mL (≈ 0.0585 µM) | 2 | > 256 µg/mL | 4 | 16 µg/mL (≈ 15.1 µM) | 1 | 256 µg/mL (≈ 241 µM) | > 0.062 µg/mL | >8 | 1 | 128 µg/mL (≈ 121 µM)
2 | CC[C@H]1OC(=O)[C@H](C)[C@@H](OC(=O)CCNCCCCNc2cc3c(cc2F)c(=O)c(C(=O)O)cn3C2CC2)[C@H](C)[C@@H](O[C@@H]2O[C@H](C)C[C@H](N(C)C)[C@H]2O)[C@](C)(OC)C[C@@H](C)/C(=N\OCC#Cc2cncc(C(N)=O)c2)[C@H](C)[C@H]2OC(=O)O[C@@]21C | 0.008 µg/mL (≈ 0.0068 µM) | 2 µg/mL (≈ 1.7 µM) | 0.06 µg/mL (≈ 0.051 µM) | > 0.5 µg/mL | 0.008 µg/mL (≈ 0.0068 µM) | >8 | 64 µg/mL (≈ 54.4 µM) | 0.06 µg/mL (≈ 0.051 µM) | ≤ 0.008 µg/mL | ≤ 0.008 µg/mL |  | > 256 µg/mL | 2 | 128 µg/mL (≈ 109 µM) | >=1 | 2 µg/mL (≈ 1.7 µM) | > 0.5 µg/mL | >8 | 1 | 128 µg/mL (≈ 109 µM)
3 | CC[C@H]1OC(=O)[C@H](C)[C@@H](OC(=O)CCNCCCCNc2cc3c(cc2F)c(=O)c(C(=O)O)cn3C2CC2)[C@H](C)[C@@H](O[C@@H]2O[C@H](C)C[C@H](N(C)C)[C@H]2O)[C@](C)(OC)C[C@@H](C)/C(=N\OC/C=C/c2cncc(C(N)=O)c2)[C@H](C)[C@H]2OC(=O)O[C@@]21C | 0.008 µg/mL (≈ 0.00679 µM) | 16 µg/mL (≈ 13.6 µM) | 0.12 µg/mL (≈ 0.102 µM) | 0.25 µg/mL (≈ 0.212 µM) | 0.008 µg/mL (≈ 0.00679 µM) | 2 | 32 µg/mL (≈ 27.2 µM) | 0.25 µg/mL (≈ 0.212 µM) | ≤ 0.008 µg/mL | ≤ 0.008 µg/mL |  | > 256 µg/mL | 1 | 32 µg/mL (≈ 27.2 µM) | >=1 | 16 µg/mL (≈ 13.6 µM) | > 2 µg/mL | >8 | 1 | > 256 µg/mL
4 | CC[C@H]1OC(=O)[C@H](C)[C@@H](OC(=O)CCNCCCCCCCNc2cc3c(cc2F)c(=O)c(C(=O)O)cn3C2CC2)[C@H](C)[C@@H](O[C@@H]2O[C@H](C)C[C@H](N(C)C)[C@H]2O)[C@](C)(OC)C[C@@H](C)/C(=N\OC)[C@H](C)[C@H]2OC(=O)O[C@@]21C | 2 µg/mL (≈ 1.86 µM) | 256 µg/mL (≈ 238 µM) | 8 µg/mL (≈ 7.45 µM) | 16 µg/mL (≈ 14.9 µM) | 0.25 µg/mL (≈ 0.233 µM) | 2 | 2 µg/mL (≈ 1.86 µM) | 0.016 µg/mL (≈ 0.0149 µM) | 2 µg/mL (≈ 1.86 µM) | 0.125 µg/mL (≈ 0.116 µM) | 1 | > 256 µg/mL | 8 | 16 µg/mL (≈ 14.9 µM) | 2 | 256 µg/mL (≈ 238 µM) | 0.125 µg/mL (≈ 0.116 µM) | 8 | 1 | 128 µg/mL (≈ 119 µM)
5 | CC[C@H]1OC(=O)[C@H](C)[C@@H](OC(=O)CCN2CCN(c3cc4c(cc3F)c(=O)c(C(=O)O)cn4C3CC3)CC2)[C@H](C)[C@@H](O[C@@H]2O[C@H](C)C[C@H](N(C)C)[C@H]2O)[C@](C)(OC)C[C@@H](C)/C(=N\OC/C=C/c2cncc(C(=O)NC)c2)[C@H](C)[C@H]2OC(=O)O[C@@]21C | 0.5 µg/mL (≈ 0.42 µM) | 4 µg/mL (≈ 3.36 µM) | 2 µg/mL (≈ 1.68 µM) | > 16 µg/mL | 0.06 µg/mL (≈ 0.0504 µM) | >8 | 64 µg/mL (≈ 53.8 µM) | 8 µg/mL (≈ 6.72 µM) | 0.12 µg/mL (≈ 0.101 µM) | 0.03 µg/mL (≈ 0.0252 µM) | 4 | > 256 µg/mL | >4 | > 256 µg/mL | 2 | 4 µg/mL (≈ 3.36 µM) | > 64 µg/mL | >8 | 1 | > 256 µg/mL
